Laboratory results from a melting point compilation (Tetko et al.; mined from patent text by program, amines drawn as free bases though some values may be those of a salt).

Point of comparison: `CC(C)(C(=O)c1ccccc1)S(=O)(=O)c1ccccc1`, melting point 70 °C. Against it:
- CC(C)(C)OC(=O)COC1CCN(CC2CN(c3ccc(CN)cc3)C(=O)O2)CC1 (stereo not drawn) — higher, 95 to 96 °C
- COC(=O)CC[C@H](NC(=O)c1ccc(CCn2cnc3nccc-3c2O)cc1)C(=O)OC — higher, 170 to 172 °C
- CCn1nc(-c2ccccc2)c(C(C)=O)c(Nc2cccc3nc(C)ccc23)c1=O — higher, 204 to 205 °C
- O=C(O)c1ccccc1SSc1ccc([N+](=O)[O-])cc1C(Cl)(Cl)Cl — higher, 224 °C
- CC1(C)CC(=O)CCc2ccc(Br)cc21 — lower, 67 to 68 °C
- CN1C(=O)C2(COc3cc4c(cc32)OCCO4)c2c(NC(=O)C3CCCCC3)cccc21 (stereo not drawn) — higher, 96 to 98 °C
- COc1cc(NCCN2CCC(Nc3nc4ccccc4n3Cc3ccc(F)cc3)CC2)ncn1 — higher, 146 °C
- COC(=O)C(C)(N)Cc1csc2ccccc12 (stereo not drawn) — lower, 44 to 45 °C
- CCOC(=O)C1(I)C=CC(c2ccccc2)=CC1 (stereo not drawn) — higher, 105 to 106 °C
- CCOC(=O)c1cn(CC)c2oc(CN3CCOCC3)cc2c1=O — higher, 229 to 231 °C
- CCC(=O)c1cc2c(cc1O)CCCC2 — lower, 57 to 58 °C
- CCCCCCCCCCCCCCCCCCOc1cc(NC(=O)OCc2ccccc2)cc(OCCCOc2ccccc2)c1 — lower, 68 to 69 °C
- C[C@H](NC(=O)OCc1ccccc1)C(=O)N[C@@H](Cc1ccccc1)C(=O)O — higher, 121 to 122 °C
- CCN(CC)C(=O)SC1(C(=O)N(CC)CC)C=CC=NC1F (stereo not drawn) — higher, 87 to 88 °C
- CC(=O)N(CC=C=CC=c1c(C)c2c(n(C)c1=O)=NN(c1ccccc1)C2=O)c1ccccc1 — higher, > 300 °C
- CC(=O)OCC1OC(n2cc(C)c(=O)[nH]c2=O)CC1N=[N+]=[N-] (stereo not drawn) — higher, 96 to 98 °C
- Nc1cc(Cl)cc(Cl)c1C(=O)NCc1ccc(Cl)cc1 — higher, 174 to 178 °C
- C[C@H](NP(=O)(Cc1ccccc1)Cc1ccccc1)C(=O)N1CCC[C@H]1C(=O)N[C@H](C)C(=O)OCc1ccccc1 — higher, 82 to 85 °C
- O=c1[nH]c2cc(Br)cc3c2n(c1=O)CC3 — higher, > 300 °C
- CC(=O)NC1=C(C#N)C(c2cccc([N+](=O)[O-])c2)c2ccc3ccccc3c2O1 (stereo not drawn) — higher, 234 to 236 °C
- Cc1cc(-c2cc(C(F)(F)F)nn2-c2ccc(S(C)(=O)=O)c(F)c2)ccc1-c1ccco1 — higher, 123 to 125 °C
- Cc1cccc(CCC(=O)c2ccccc2)c1NC(=O)CC1c2ccccc2Oc2ccccc21 — higher, 175 to 176 °C
- Brc1ccc2c3c(cccc13)C(NCCCCCCCCCCn1ccnc1)=N2 — higher, 115 to 116 °C
- COc1ccc(CCNC(=O)C2CCC2)cc1C — higher, 103 to 104 °C
- COc1ccc(CCNCC(O)c2ccc(OCc3ccccc3)cc2OCc2ccccc2)cc1OC (stereo not drawn) — higher, 116 to 117 °C
- CN(C(=O)Nc1ccc(Cl)cc1)c1nncs1 — higher, 182 °C
- COc1ccc(O)c(C(=O)Nc2ccccc2C(=O)NCCCC(=O)O)c1 — higher, 191 to 193 °C
- CC(=O)Oc1ccc(-c2c3ccccc3cc3sc4ccccc4c23)cc1OC(C)=O — higher, 179 to 180 °C
- Cc1cccc(-n2nc(C)cc2-c2ccnc(N)c2)c1 — higher, 124 to 125 °C
- CC1=Nc2ccc(S(N)(=O)=O)cc2S(=O)(=O)N1 — higher, 295 to 297 °C
- O=C(Nc1cccc(-n2ccnc2)c1)c1csc(-c2ccccc2)n1 — higher, 131 to 134 °C
- CC(NC=O)c1ccc(Nc2nccc(-c3cccnc3)n2)cc1 (stereo not drawn) — higher, 118 to 121 °C
- O=[N+]([O-])c1ccc(-n2ncnc2-c2cnccn2)cc1 — higher, 188 to 189 °C
- Cc1cc(=O)n(-c2ccc(Cl)cc2)cn1 — higher, 177 to 179 °C
- OCc1ccc(-c2ccc(-c3cn([C@H]4CN5CCC4CC5)nn3)s2)cc1 — higher, 253 °C
- Cc1c(C)c2c3c(cc(C)c2[nH]c1=O)CC(CN=[N+]=[N-])O3 (stereo not drawn) — higher, 187 to 189 °C
- CCS(=O)(=O)N[C@H](C(=O)NCCc1cc(Br)c(OCC#Cc2ccc(Cl)cc2)c(OC)c1)C(C)C — higher, 109 to 111 °C
- Cc1cccc(C=CC(=O)O)c1[N+](=O)[O-] — higher, 230 to 235 °C
- CCC(C)(C(=O)c1ccc(N2CCOCC2)cc1)N1CCOCC1 (stereo not drawn) — higher, 111 to 114 °C
- Cc1[nH]c(=O)c(-c2csc(-c3ccnc(NCc4ccccn4)c3)n2)cc1C(=O)NCc1ccccn1 — higher, > 260 °C
- CN1CC(=O)Nc2cccc(I)c2C1=O — higher, 214 to 217 °C
- CCC1=C(C#N)C(c2cccc(C#N)c2Br)c2c[nH]nc2N1 (stereo not drawn) — higher, > 300 °C
- CC1(C)Oc2c(N)c(Cl)cc(Cl)c2C1=O — higher, 168 to 170 °C
- O=C1CCSC(=S)N1c1c(F)c(F)c(F)c(F)c1F — higher, 164 °C
- CS(=O)(=O)Nc1nc(CN2CCC(c3c[nH]c4ccccc34)CC2)cs1 — higher, 215 to 217 °C
- Cc1cccc2c1CCC2=NNC(=N)N — higher, > 300 °C
- O=C1NCCCN1C1CCN(CC(O)COc2ccccc2Cl)CC1 (stereo not drawn) — higher, 150 to 153 °C
- O=C(NC(CO)C(=O)c1ccc(Cl)cc1)C1CCN(C(=O)OCc2ccccc2)CC1 (stereo not drawn) — higher, 116 to 118 °C
- CCCC1(C(O)CCCN2CCC(N3Cc4ccccc4C3=O)CC2)c2ccccc2-c2ccccc21 (stereo not drawn) — higher, 75 to 78 °C
- CCc1cc2ccccc2c(=O)o1 — lower, 69 °C
- COCOc1c(NC(=O)N(c2ccccc2)C2CCC(NC(=O)OCc3ccccc3)CC2)cc(OC)cc1C(C)(C)C (stereo not drawn) — higher, 145 to 154 °C
- CC(Cc1nc(-c2ccccc2)nc2ccccc12)C(=O)N(C)C(C)C (stereo not drawn) — higher, 171 °C
- CC(C)c1cc(OC2CN(C(c3ccccc3)c3ccccc3)C2)cc2c1C(=O)N(COC(=O)c1c(Cl)cccc1Cl)S2(=O)=O — higher, 205 to 207 °C
- O=[N+]([O-])c1ccc(CN(CCO)CCO)cc1 — higher, 74 to 75 °C
- Nc1ccccc1CS(=O)c1nc2ccccc2[nH]1 (stereo not drawn) — higher, 164 to 165 °C
- CCCCCCn1c(=O)c2c(ncn2CCCCC(C)O)n(C)c1=O (stereo not drawn) — lower, 68 to 69 °C
- CCOC(=O)/C=C(C)/C=C/C=C(\C)C1=Cc2cc(C34CC5CC(CC(C5)C3)C4)ccc2OC1 — higher, 178 to 179 °C
- FC(F)(F)c1cccc(-c2snnc2S)c1 — higher, > 200 °C
- CN1CC(CO)CC2(O)c3cccc4[nH]cc(c34)CC12 (stereo not drawn) — higher, 175 to 179 °C
- N#Cc1c(N2CCCCC2)cc(-c2ccccc2)c2c1C(=O)c1ccccc1-2 — higher, 220 to 222 °C
- CCc1c(-c2ccc(O)cc2)c2c(COCCCCCN3CCCCC3)cc3c(O)ccc1n32 — higher, 120 to 121 °C
- CC(C)Cc1sc(-c2nccs2)c2c1C(=O)CC(C)(C)C2 — higher, 98 to 100 °C
- CC(C)(C)OC(=O)c1ncn2c1[C@@H]1CCCN1C(=O)c1cc(N)ccc1-2 — higher, 223 to 224 °C
- CC(Oc1ncn(-c2cccc(Cl)c2)n1)C(=O)O (stereo not drawn) — higher, 197 to 199 °C
- O=C(Cc1cccnc1)c1ccc2c(c1)CCC2 — lower, 55 to 56 °C
- COc1ccc(-c2cccc(Nc3nccc(-c4sc(N)nc4-c4ccccc4)n3)c2)cc1OC — higher, 236 to 237 °C
- Cc1oc(-c2ccccc2)nc1COc1ccc(Cn2cc(CCC(=O)O)c(-c3ccc(C(F)(F)F)cc3)n2)cc1 — higher, 149 to 150 °C
- O=C(NCc1cccs1)C1CC2C=CC1C2 (stereo not drawn) — higher, 123 to 124 °C
- Cc1cc(C)c(CC(C)CC(C(=O)C(CC(C)Cc2c(C)cc(C)cc2C)N2C(=O)c3ccccc3C2=O)N2C(=O)c3ccccc3C2=O)c(C)c1 (stereo not drawn) — higher, 131 to 132 °C
- Cn1c(=O)c(-c2nnn(Cc3cccc(OCc4ccc5ccccc5n4)c3)n2)cc2cc(OCCCN3CCN(Cc4ccc5ccccc5n4)CC3)ccc21 — higher, 174 to 178 °C
- CN(NC1=CC(=O)NCC1)c1ccccc1 — higher, 180 to 182 °C
- CCNC(=O)NNC=NC(=O)c1nc(Cl)c(NC(C)C)nc1N — higher, 148 to 150 °C
- CNS(=O)(=O)CCc1ccc(NN=CCCC#N)cc1 — higher, 96 to 97 °C
- CC(c1ccccc1)N(C=O)C(C#N)C=O (single isomer, unassigned; (+)) — higher, 245 °C
- C=CCOc1cc(N)c([N+](=O)[O-])cc1I — higher, 74 °C
- CC1(C)Oc2ccccc2-n2c(CN3CCOCC3)ccc21 — higher, 150 to 151 °C
- OCCCc1ccc(OCc2ccco2)cc1Oc1ncc(C(F)(F)F)cc1Cl — lower, 68 to 68.6 °C
- N#Cc1ccc2oc(CO)cc2c1 — higher, 113 to 114 °C
- CCCCCCC1=C(Br)C(O)(CO)NC1=O (stereo not drawn) — higher, 134 to 135 °C
- CCCc1nc(SC)c(C=O)n1Cc1ccc(-c2ccccc2S(=O)(=O)NC(=O)NCc2ccccc2)cc1 — higher, 180 °C
- CCCCC1(CCCC)CCc2c(OCc3ccc4ccccc4n3)ccc(Cl)c2C1O (stereo not drawn) — higher, 142 to 144 °C
- CCCC(CCC)NC(=O)Nc1ccc(Cl)cc1 — higher, 135 to 136 °C
- COc1ccc(C(O)(c2ccc(OC)cc2)C(O)(c2ccccc2)c2ccccc2)cc1 — higher, 163 to 165 °C
- O=C(Nc1ccccc1)NC1CCN(Cc2ccccc2)CC1 — higher, 161 to 162 °C
- CCCCOC(=O)CN(C(=O)C(F)(F)F)C(N1CCOCC1)P(=O)(O)OSc1ccc(Cl)cc1 (stereo not drawn) — higher, 79.5 to 81 °C
- Cc1nc2c(s1)CN=C(c1ccccc1Cl)c1cc(Cl)ccc1-2 — higher, 162 to 164 °C
- COc1cc(Cl)ccc1CC(=O)O — higher, 100 °C
- NC(=O)c1ccc(NC(=O)c2ccccc2SSc2ccccc2C(=O)Nc2ccc(C(N)=O)cc2)cc1 — higher, > 270 °C
- O=C(c1ccccc1)c1ccccc1NC(=O)C(Cl)Cl — higher, 112 to 114 °C
- CCCCOc1ccc2cc(C(=O)O)ccc2c1 — higher, 175 to 180 °C
- COCOc1cc(OC)c(OC)cc1C#Cc1ccc(OC)c(OC)c1 — higher, 84 to 86 °C
- CN(Cc1ccc(CCn2cnc3cc(-c4ccc(Cl)cc4)sc3c2=O)cc1)S(C)(=O)=O — higher, 230 to 232 °C
- COc1ccc(CCN2CCC(C(O)c3ccc(NS(C)(=O)=O)cc3)CC2)cc1 (stereo not drawn) — lower, 40 to 48 °C
- CCCCCCOC(=O)CCCC(C)(C)c1cc(O)c(C(C)(C)CCCC(=O)OCCCCCC)cc1O — higher, 77 to 78 °C
- CC1(C)C(c2ccccc2)=Nc2ccc(C3=NNC(=O)CC3)cc21 — higher, 200 to 201 °C
- COc1ccc(NC(=O)N(Cc2ccccc2)Cc2ccccn2)c(NC(=O)c2cc(C(C)(C)C)c(O)c(C(C)(C)C)c2)c1 — higher, 165 to 166 °C
- CCC(C)(C)Nc1c(NCc2cccc(Cl)c2Cl)c(=O)c1=O — higher, 222 to 223 °C
